target: T1, menin-MLL interaction (Homo sapiens, UniProt O00255); assay: biochemical
T1 sequence (O00255 1-610): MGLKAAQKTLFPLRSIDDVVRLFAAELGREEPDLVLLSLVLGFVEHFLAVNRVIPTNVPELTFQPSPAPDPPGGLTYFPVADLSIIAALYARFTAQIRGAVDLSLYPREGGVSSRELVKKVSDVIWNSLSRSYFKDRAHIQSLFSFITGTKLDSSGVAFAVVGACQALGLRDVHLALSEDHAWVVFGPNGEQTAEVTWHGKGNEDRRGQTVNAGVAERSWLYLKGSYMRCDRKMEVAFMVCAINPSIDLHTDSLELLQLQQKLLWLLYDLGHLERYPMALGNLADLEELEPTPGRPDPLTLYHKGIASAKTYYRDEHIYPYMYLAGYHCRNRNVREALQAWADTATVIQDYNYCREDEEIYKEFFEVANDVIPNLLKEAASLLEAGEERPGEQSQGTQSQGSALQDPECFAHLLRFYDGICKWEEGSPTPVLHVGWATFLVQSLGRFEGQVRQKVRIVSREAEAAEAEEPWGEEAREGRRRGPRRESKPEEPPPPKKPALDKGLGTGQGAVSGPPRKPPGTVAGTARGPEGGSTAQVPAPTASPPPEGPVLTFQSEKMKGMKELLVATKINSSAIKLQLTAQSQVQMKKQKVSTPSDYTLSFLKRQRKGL
Description: Compounds that inhibit the interaction decrease the fluorescence anisotropy which is being used as a read-out for compound screening and for IC50 determination.

| Compound | IC50 [nM] |
| --- | --- |
| N#Cc1cc2cc(CN3CCC(Nc4ncnc5sc(CC(F)(F)F)cc45)CC3)cc(F)c2[nH]1 [Compound 245] | 100 to 500 |
| CS(=O)(=O)N(CC#N)c1ccc(CC(=O)N2CCN(c3ncnc4sc(CC(F)(F)F)cc34)CC2)cc1 [Compound 61] | < 100 |
| N#Cc1cc2c(F)c(CN3CCC(Nc4ncnc5sc(CC(F)(F)F)cc45)CC3)ccc2[nH]1 [Compound 184] | < 100 |
| O=C(Cc1ccc(NS(=O)(=O)CC(F)(F)F)cc1Cl)N1CCN(C2=NC=NC3SC(CC(F)(F)F)=CC23)CC1 (stereo not shown) [Compound 287] | 500 to 2000 |
| Cc1c(CN2CCC(Nc3ncnc4sc(CC(F)(F)F)cc34)CC2)ccc2c1cc(C#N)n2CCN1CCN(C(=O)CCC2CC2)CC1 [Compound 344] | < 100 |
| NCc1ccc(CN2CCC(Nc3ncnc4sc(CC(F)(F)F)cc34)CC2)cc1 [Compound 137] | 500 to 2000 |
| N#Cc1cc2cc(CN3CCC(Nc4ncnc5sc(CC(F)(F)F)cc45)CC3)ccc2n1CC(O)(CO)COCC1CCCCC1 (stereo not shown) [Compound 317] | < 100 |
| N[C@H]1CN(Cc2ccccc2)CC[C@@H]1Nc1ncnc2sc(CC(F)(F)F)cc12 [Compound 166] | 100 to 500 |
| N#Cc1cc2cc(CN3CCC(Nc4ncnc5sc(CC(F)(F)F)cc45)CC3)ccc2n1CCn1ccnn1 [Compound 207] | < 100 |
| N#Cc1[nH]c2ccc(CN3CCC(Nc4ncnc5sc(CC(F)(F)F)cc45)CC3)cc2c1N [Compound 233] | 100 to 500 |
| CN1CCC(N2CCN(c3ncnc4sc(CC(F)(F)F)cc34)CC2)CC1 [Compound 27] | 500 to 2000 |
| N#Cc1cc2cc(CN3CCC(Nc4ncnc5sc(CC(F)(F)F)cc45)CC3)ccc2n1Cc1c[nH]nn1 [Compound 195] | < 100 |
| CCOc1cc2[nH]c(C#N)cc2cc1CN1CCC(Nc2ncnc3sc(CC(F)(F)F)cc23)CC1 [Compound 215] | < 100 |
| CNS(=O)(=O)c1ccc(CC(=O)N2CCN(c3ncnc4sc(CC(F)(F)F)cc34)CC2)cc1 [Compound 82] | 100 to 500 |
| Cc1noc(C)c1Cn1c(C#N)cc2cc(CN3CCC(Nc4ncnc5sc(CC(F)(F)F)cc45)CC3)ccc21 [Compound 241] | 100 to 500 |
| FC(F)(F)Cc1cc2c(N3CCN(c4nnc(CCCc5ccccc5)s4)CC3)ncnc2s1 [Compound 41] | 500 to 2000 |
| FC(F)(F)Cc1cc2c(NCC3CCN(Cc4ccc(OC(F)(F)F)cc4)CC3)ncnc2s1 [Compound 271] | 500 to 2000 |
| CC(C)c1cc2c(N3CCN(C4=NCC(C)(C)S4)CC3)ncnc2s1 [Compound 30] | 500 to 2000 |
| O=C(CCC1CCCCC1)N1CCN(c2ncnc3sc(CC(F)(F)F)cc23)CC1 [Compound 90] | 500 to 2000 |
| N#C[C@@H]1C[C@@H]1c1ccc(CN2CCC(Nc3ncnc4sc(CC(F)(F)F)cc34)CC2)cc1 [Compound 159] | 500 to 2000 |
| N#Cc1cc2cc(CN3CCC(Nc4ncnc5sc(CC(F)(F)F)cc45)CC3)c(O)cc2n1Cc1cn[nH]c1 [Compound 382] | < 100 |
| N#Cc1cc2cc(CN3CCC(Nc4ncnc5sc(CC(F)(F)F)cc45)CC3)ccc2n1CO [Compound 183] | < 100 |
| Cc1c[nH]c(CCC(O)(CO)Cn2c(C#N)cc3c(C)c(CN4CCC(Nc5ncnc6sc(CC(F)(F)F)cc56)CC4)ccc32)n1 (stereo not shown) [Compound 374] | < 100 |

| Compound | IC50 [nM] |
| --- | --- |
| N#Cc1cc2cc(CN3CCC(Nc4ncnc5sc(CC(F)(F)F)cc45)CC3)ccc2n1Cc1c[nH]cn1 [Compound 185] | < 100 |
| COc1cc2c(cc(C#N)n2CC(N)=O)c(C)c1CN1CCC(Nc2ncnc3sc(CC(F)(F)F)cc23)CC1 [Compound 385] | < 100 |
| FC(F)Oc1ccc(CN2CCC(Nc3ncnc4sc(CC(F)(F)F)cc34)CC2)cc1 [Compound 141] | 500 to 2000 |
| O=C(COCc1ccccc1)N1CCN(c2ncnc3sc(CC(F)(F)F)cc23)CC1 [Compound 92] | 500 to 2000 |
| N#Cc1cc2cc(CN3CCC(N(CCN4CCOCC4)c4ncnc5sc(CC(F)(F)F)cc45)CC3)ccc2[nH]1 [Compound 238] | 100 to 500 |
| Cn1cc(S(=O)(=O)Nc2ccc(CC(=O)N3CCN(c4ncnc5sc(CC(F)(F)F)cc45)CC3)cc2)cn1 [Compound 83] | 100 to 500 |
| O=C(Cc1ccc(NS(=O)(=O)C2CC2)cc1Cl)N1CCN(C2=NC=NC3SC(CC(F)(F)F)=CC23)CC1 (stereo not shown) [Compound 285] | < 100 |
| O=C(Cc1ccc(Cc2ccoc2)cc1)N1CCN(c2ncnc3sc(CC(F)(F)F)cc23)CC1 [Compound 76] | 100 to 500 |
| N#Cc1cc2cc(CN3CCC(Nc4ncnc5sc(CC(F)(F)F)cc45)CC3)ccc2n1C(F)C(N)=O (stereo not shown) [Compound 220] | < 100 |
| OCCNN(c1ncnc2sc(CC(F)(F)F)cc12)C1CCN(Cc2ccccc2)CC1 [Compound 125] | 100 to 500 |
| OCc1ccccc1CN1CCC(Nc2ncnc3sc(CC(F)(F)F)cc23)CC1 [Compound 110] | 100 to 500 |
| COc1ccc(CN2CCC(CNc3ncnc4sc(CC(F)(F)F)cc34)CC2)c(Cl)c1 [Compound 257] | 100 to 500 |
| OCc1ccc(CN2CCC(CNc3ncnc4sc(CC(F)(F)F)cc34)CC2)cc1 [Compound 266] | 500 to 2000 |
| O[C@@H]1CN(Cc2ccccc2)CC[C@H]1Nc1ncnc2sc(CC(F)(F)F)cc12 (relative stereo) [Compound 165] | 100 to 500 |
| FC(F)(F)Cc1cc2c(NCC3CCN(Cc4ccc(C(F)(F)F)cc4)CC3)ncnc2s1 [Compound 276] | 500 to 2000 |
| CNCCS(=O)(=O)Nc1ccc(CC(=O)N2CCN(c3ncnc4sc(CC(F)(F)F)cc34)CC2)cc1 [Compound 58] | < 100 |
| FC(F)(F)Cc1cc2c(N3CCN(c4nnc(CC5CCCC5)s4)CC3)ncnc2s1 [Compound 19] | 500 to 2000 |
| Cc1c(CN2CCC(Nc3ncnc4sc(CC(F)(F)F)cc34)CC2)ccc2c1cc(C#N)n2CC(O)CO (stereo not shown) [Compound 300] | < 100 |
| N#Cc1cc2cc(CN3CCC(Nc4ncnc5sc(CC(F)(F)F)cc45)CC3)ccc2n1CCN1CCOCC1 [Compound 192] | < 100 |
| CS(=O)(=O)Nc1ccc(CC(=O)N2CCN(c3ncnc4sc(CC(F)(F)F)cc34)CC2)cc1 [Compound 45] | < 100 |
| CNn1c(C#N)cc2cc(CN3CCC(Nc4ncnc5sc(CC(F)(F)F)cc45)CC3)ccc21 [Compound 231] | 100 to 500 |
| Nc1ccc(CC(=O)N2CCN(c3ncnc4sc(CC(F)(F)F)cc34)CC2)cc1 [Compound 69] | 100 to 500 |
| N#Cc1cc2c(O)c(CN3CCC(Nc4ncnc5sc(CC(F)(F)F)cc45)CC3)ccc2[nH]1 [Compound 235] | 100 to 500 |

| Compound | IC50 [nM] |
| --- | --- |
| Cc1c(CN2CCC(Nc3ncnc4sc(CC(F)(F)F)cc34)CC2)ccc2c1cc(C#N)n2CCO [Compound 299] | < 100 |
| Cc1c(CN2CCC(Nc3ncnc4sc(CC(F)(F)F)cc34)CC2)ccc2c1cc(C#N)n2CCN1CCNC(C(F)(F)F)C1 (stereo not shown) [Compound 378] | < 100 |
| CS(=O)(=O)N(CC#N)c1ccc(CC(=O)N2CCN(C3=NC=NC4SC(CC(F)(F)F)=CC34)CC2)c(Cl)c1 (stereo not shown) [Compound 63] | < 100 |
| Cc1c(CN2CCC(Nc3ncnc4sc(CC(F)(F)F)cc34)CC2)ccc2c1cc(C#N)n2CC1CCC(=O)NC1 (stereo not shown) [Compound 428] | < 100 |
| O=C(CCc1ccccc1)N1CCN(c2ncnc3sc(CC(F)(F)F)cc23)CC1 [Compound 88] | 500 to 2000 |
| N#Cc1cc2cc(CN3CCC(Nc4ncnc5sc(CC(F)(F)F)cc45)CC3)ccc2n1C[C@@H](O)CO [Compound 187] | < 100 |
| N#Cc1cc2c(Br)c(CN3CCC(Nc4ncnc5sc(CC(F)(F)F)cc45)CC3)ccc2[nH]1 [Compound 298] | < 100 |
| CC(c1cc2c(N3CCN(C4=NCC(C)(C)S4)CC3)ncnc2s1)C(F)(F)F (stereo not shown) [Compound 38] | 500 to 2000 |
| CC(=O)c1ccc(CN2CCC(CNc3ncnc4sc(CC(F)(F)F)cc34)CC2)cc1 [Compound 270] | 500 to 2000 |
| CS(=O)(=O)Nc1ccc(CC(=O)N2CCN(C3=NC=NC4SC(CC(F)(F)F)=CC34)CC2)c(Cl)c1 (stereo not shown) [Compound 64] | < 100 |
| N#Cc1cc2c(C=O)c(CN3CCC(Nc4ncnc5sc(CC(F)(F)F)cc45)CC3)ccc2n1Cc1cn[nH]c1 [Compound 352] | < 100 |
| N#Cc1cc2nc(CN3CCC(Nc4ncnc5sc(CC(F)(F)F)cc45)CC3)ccc2[nH]1 [Compound 424] | < 100 |
| CS(=O)(=O)OCCn1c(C#N)cc2cc(CN3CCC(Nc4ncnc5sc(CC(F)(F)F)cc45)CC3)ccc21 [Compound 395] | < 100 |
| CCCCC(O)(CO)Cn1c(C#N)cc2c(C)c(CN3CCC(Nc4ncnc5sc(CC(F)(F)F)cc45)CC3)ccc21 (stereo not shown) [Compound 338] | < 100 |
| Cc1ccccc1CN1CCC(Nc2ncnc3sc(CC(C)(F)F)cc23)CC1 [Compound 155] | 500 to 2000 |
| Cc1c(CN2CCC(Nc3ncnc4sc(CC(F)(F)F)cc34)CC2)c(O)cc2c1cc(C#N)n2Cc1c[nH]nn1 [Compound 391] | < 100 |
| CN(C)CCS(=O)(=O)Nc1ccc(CC(=O)N2CCN(c3ncnc4sc(CC(F)(F)F)cc34)CC2)cc1 [Compound 59] | < 100 |
| N#Cc1cc2cc(CN3CCC(Nc4ncnc5sc(CC(F)(F)F)cc45)CC3)ccc2n1CCN [Compound 186] | < 100 |
| Cc1nn[nH]c1Cn1c(C#N)cc2c(C)c(CN3CCC(Nc4ncnc5sc(CC(F)(F)F)cc45)CC3)ccc21 [Compound 327] | < 100 |
| OCC(O)CN(c1ncnc2sc(CC(F)(F)F)cc12)C1CCN(Cc2ccccc2)CC1 (stereo not shown) [Compound 128] | 100 to 500 |
| N#Cc1cc2cc(CN3CCC(Nc4ncnc5sc(CC(F)(F)F)cc45)CC3)ccc2n1CS(N)(=O)=O [Compound 210] | < 100 |

— US9505781B2, “Compositions comprising thienopyrimidine and thienopyridine compounds and methods of use thereof” (The Regents of the University of Michigan, priority 2013, dated 2016)
